Data published in US12655116B2, “Substituted isophthalic acid diamides” (Bayer Aktiengesellschaft, priority 2020, dated 2026).

Assays:
ECHCG [1] = experiment: Pre-emergence herbicidal action against ECHCG; format: in vivo, Echinochloa crus-galli; details: for pest or weed control at 80 g/ha: Echinochloa crus-galli, 504 h
Method in brief: (§1)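 Pre-emergence soil-surface spray of formulated compound (WP or EC; 600 to 800 l/ha; 0.2% wetting agent) over seeds sown in sandy loam. After 3 weeks under greenhouse conditions, damage is estimated visually in percent against untreated plants.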

AMARE [2] = experiment: Pre-emergence herbicidal action against AMARE; format: in vivo, Amaranthus retroflexus; details: for pest or weed control at 20 g/ha / pest or weed control at 80 g/ha: Amaranthus retroflexus, 504 h
Method in brief: as §1

AVEFA [3] = experiment: Post-emergence herbicidal action against AVEFA; format: in vivo, Avena fatua; details: visual assessment about 3 weeks after treatment, 100% = plants have died, 0% = like control plants
Method: Seeds of monocotyledonous and dicotyledonous weed and crop plants are laid out in sandy loam soil in wood-fiber pots, covered with soil and cultivated in a greenhouse under good growth conditions. 2 to 3 weeks after sowing, the test plants are treated at the one-leaf stage. The compounds of the invention, formulated in the form of wettable powders (WP) or as emulsion concentrates (EC), are then sprayed onto the green parts of the plants in the form of an aqueous suspension or emulsion at a water application rate equivalent to 600 to 800 l/ha, with addition of 0.2% wetting agent. After the test plants have been left to stand in the greenhouse under optimal growth conditions for about 3 weeks, the action of the preparations is assessed visually in comparison to untreated controls (herbicidal action in percent (%): 100% activity=the plants have died, 0% activity=like control plants). […] The tables below illustrate, in an illustrative manner, the post-emergence herbicidal action of the compounds of the invention, the herbicidal activity being stated in percent.

VERPE = experiment: Pre-emergence herbicidal action against VERPE; format: in vivo, Veronica persica; details: dosage 80 g/ha
Method in brief: as §1

ABUTH [4] = experiment: Post-emergence herbicidal action against ABUTH; format: in vivo, Abutilon theophrasti; details: dosage 20 g/ha, visual assessment about 3 weeks after treatment vs untreated controls; for pest or weed control at 20 g/ha: Abutilon theophrasti, 504 h
Method in brief: (§2)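 Greenhouse plants in sandy loam were sprayed at the one-leaf stage, 2 to 3 weeks after sowing, with WP or EC formulations as aqueous suspension or emulsion (600 to 800 l/ha water, 0.2% wetting agent). Visual damage was scored about 3 weeks later versus untreated controls, 0% = like control, 100% = dead.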

ABUTH [5] = experiment: Pre-emergence herbicidal action against ABUTH; format: in vivo, Abutilon theophrasti; details: for pest or weed control at 80 g/ha: Abutilon theophrasti, 504 h
Method in brief: as §1

SETVI [6] = experiment: Pre-emergence herbicidal action against SETVI; format: in vivo, Setaria viridis; details: dosage 80 g/ha; for pest or weed control at 80 g/ha: Setaria viridis, 504 h
Method in brief: as §1

AVEFA [7] = experiment: Pre-emergence herbicidal action against AVEFA; format: in vivo, Avena fatua; details: for pest or weed control at 80 g/ha / pest or weed control at 20 g/ha: Avena fatua, 504 h
Method in brief: as §1

VIOTR [8] = experiment: Pre-emergence herbicidal action against VIOTR; format: in vivo, Viola tricolor; details: for pest or weed control at 20 g/ha / pest or weed control at 80 g/ha: Viola tricolor, 504 h
Method in brief: as §1

VIOTR [9] = experiment: Post-emergence herbicidal action against VIOTR; format: in vivo, Viola tricolor
Method in brief: as §2

MATIN [10] = experiment: Pre-emergence herbicidal action against MATIN; format: in vivo, Matricaria inodora; details: for pest or weed control at 20 g/ha / pest or weed control at 80 g/ha: Tripleurospermum inodorum, 504 h
Method in brief: as §1

AMARE [11] = experiment: Post-emergence herbicidal action against AMARE; format: in vivo, Amaranthus retroflexus; details: 20 g/ha, visual assessment about 3 weeks after treatment, 100% = plants have died, 0% = like control plants
Method in brief: as §2

ALOMY [12] = experiment: Post-emergence herbicidal action against ALOMY; format: in vivo, Alopecurus myosuroides; details: Alopecurus myosuroides, 504 h, dosage 20 g/ha, visual assessment about 3 weeks after treatment vs untreated controls
Method in brief: as §2

SETVI [13] = experiment: Post-emergence herbicidal action against SETVI; format: in vivo, Setaria viridis; details: Setaria viridis, 504 h; for pest or weed control at 20 g/ha: dosage 20 g/ha
Method in brief: as §2

ALOMY [14] = experiment: Pre-emergence herbicidal action against ALOMY; format: in vivo, Alopecurus myosuroides; details: Alopecurus myosuroides, 504 h; 80 g/ha, pre-emergence, scored visually after 3 weeks vs untreated controls (100% = plants have died, 0% = like control plants)
Method in brief: as §1

DIGSA = experiment: Pre-emergence herbicidal action against DIGSA; format: in vivo, Digitaria sanguinalis; details: Digitaria sanguinalis, 504 h
Method in brief: as §1

ECHCG [15] = experiment: Post-emergence herbicidal action against ECHCG; format: in vivo, Echinochloa crus-galli; details: dosage 20 g/ha
Method in brief: as §2

MATIN [16] = experiment: Post-emergence herbicidal action against MATIN; format: in vivo, Matricaria inodora; details: dosage 20 g/ha
Method in brief: as §2

[17] = 20 g/ha, scored visually after 3 weeks vs untreated controls, 100% = plants have died, 0% = like control plants
[18] = 80 g/ha, scored visually after 3 weeks vs untreated controls, 100% = plants have died, 0% = like control plants
[19] = 80 g/ha, scored visually after 3 weeks vs untreated controls (100% = plants have died, 0% = like control plants)
[20] = pre-emergence, 20 g/ha, scored visually after 3 weeks, 100% = plants have died, 0% = like control plants

For `CCn1nnnc1NC(=O)c1ccc(Cl)c(C(=O)NC2CC2)c1Br` [Example 2-349], the pest or weed control at 80 g/ha (ECHCG [1]; 80 g/ha) was 90%, the pest or weed control at 20 g/ha (AMARE [2]; [17]) was 100% and the pest or weed control at 80 g/ha (AMARE [2]; [18]) was 100%. It also gave a pest or weed control at 20 g/ha (AVEFA [3]; Avena fatua, 504 h, 20 g/ha) of 90%, a pest or weed control at 80 g/ha (VERPE; Veronica persica, 504 h) of 80% and a pest or weed control at 20 g/ha (ABUTH [4]) of 80%. The pest or weed control at 80 g/ha (ABUTH [5]; [19]) was 100%, the pest or weed control at 80 g/ha (SETVI [6]) was 100% and the pest or weed control at 80 g/ha (AVEFA [7]; 80 g/ha, pre-emergence) was 100%. The pest or weed control at 20 g/ha (AVEFA [7]; [20]) was 90%, the pest or weed control at 20 g/ha (VIOTR [8]; dosage 20 g/ha) was 90% and the pest or weed control at 80 g/ha (VIOTR [8]; dosage 80 g/ha) was 100%. The pest or weed control at 20 g/ha (VIOTR [9]; Viola tricolor, 504 h, 20 g/ha) was 80%, the pest or weed control at 20 g/ha (MATIN [10]; dosage 20 g/ha) was 90% and the pest or weed control at 80 g/ha (MATIN [10]; dosage 80 g/ha) was 100%. For the same compound, the pest or weed control at 20 g/ha (AMARE [11]; Amaranthus retroflexus, 504 h) was 100%, the pest or weed control at 20 g/ha (ALOMY [12]) was 80% and the pest or weed control at 5 g/ha (SETVI [13]; dosage 5 g/ha) was 90%. The pest or weed control at 20 g/ha (SETVI [13]) was 100% and the pest or weed control at 80 g/ha (ALOMY [14]) was 100%.
Compound `Cc1c(C(=O)Nc2nnnn2C)ccc(C(F)(F)F)c1C(=O)NCC(F)(F)F` [Example 1-29] has a pest or weed control at 80 g/ha (ECHCG [1]; 80 g/ha) of 90%, a pest or weed control at 20 g/ha (AMARE [2]; [17]) of 100% and a pest or weed control at 80 g/ha (AMARE [2]; [18]) of 100%. It also gave a pest or weed control at 5 g/ha (AVEFA [3]; Avena fatua, 504 h, 5 g/ha) of 80%, a pest or weed control at 20 g/ha (AVEFA [3]; Avena fatua, 504 h, 20 g/ha) of 90% and a pest or weed control at 20 g/ha (DIGSA; dosage 20 g/ha) of 100%. The pest or weed control at 80 g/ha (DIGSA; dosage 80 g/ha) was 100%, the pest or weed control at 20 g/ha (ABUTH [4]) was 80% and the pest or weed control at 80 g/ha (ABUTH [5]; [19]) was 100%. It also gave a pest or weed control at 80 g/ha (SETVI [6]) of 100%, a pest or weed control at 80 g/ha (AVEFA [7]; 80 g/ha, pre-emergence) of 90% and a pest or weed control at 20 g/ha (AVEFA [7]; [20]) of 80%. The pest or weed control at 20 g/ha (VIOTR [8]; dosage 20 g/ha) was 100%, the pest or weed control at 80 g/ha (VIOTR [8]; dosage 80 g/ha) was 100% and the pest or weed control at 20 g/ha (MATIN [10]; dosage 20 g/ha) was 100%. The pest or weed control at 80 g/ha (MATIN [10]; dosage 80 g/ha) was 100%, the pest or weed control at 20 g/ha (ECHCG [15]; Echinochloa crus-galli, 504 h) was 80% and the pest or weed control at 20 g/ha (SETVI [13]) was 80%. It also gave a pest or weed control at 80 g/ha (ALOMY [14]) of 100%.
For `CCn1nnnc1NC(=O)c1ccc(C(F)F)c(C(=O)NCC2CC2)c1SC` [Example 2-90], the “Pre-emergence action against ECHCG in %” value (ECHCG [1]; 20 g/ha) was 90%, the “Pre-emergence action against ECHCG in %” value (ECHCG [1]; 80 g/ha) was 100% and the “Pre-emergence action against AMARE in %” value (AMARE [2]; [17]) was 100%. The “Pre-emergence action against AMARE in %” value (AMARE [2]; [19]) was 100%, the “Post-emergence action against MATIN in %” value (MATIN [16]) was 90% and the “Post-emergence action at 20 g/ha against AVEFA in %” value (AVEFA [3]; 20 g/ha) was 80%. For the same compound, the “Pre-emergence action against VERPE in %” value (VERPE) was 90%, the “Post-emergence action against ABUTH in %” value (ABUTH [4]) was 90% and the “Pre-emergence action against ABUTH (herbicidal activity)” value (ABUTH [5]; [19]) was 100%. For the same compound, the “Pre-emergence action against ABUTH (herbicidal activity in percent)” value (ABUTH [5]; dosage 20 g/ha, scored visually after 3 weeks vs untreated controls, 100% = plants have died, 0% = like control plants) was 100%, the “Pre-emergence action against SETVI in %” value (SETVI [6]) was 100% and the “Pre-emergence action against AVEFA” value (AVEFA [7]; 20 g/ha, scored visually after 3 weeks, 100% = plants have died, 0% = like control plants) was 80%. For the same compound, the “Pre-emergence action against AVEFA in %” value (AVEFA [7]; 80 g/ha, pre-emergence) was 90%, the “Pre-emergence action against VIOTR in %” value (VIOTR [8]; dosage 20 g/ha) was 80% and the “Pre-emergence action against VIOTR in %” value (VIOTR [8]; dosage 80 g/ha) was 100%. For the same compound, the “Post-emergence action against VIOTR in %” value (VIOTR [9]; 5 g/ha) was 100%, the “Post-emergence action against VIOTR in %” value (VIOTR [9]; 20 g/ha) was 100% and the “Pre-emergence action against MATIN in %” value (MATIN [10]; dosage 20 g/ha) was 100%. For the same compound, the “Pre-emergence action against MATIN in %” value (MATIN [10]; dosage 80 g/ha) was 100%, the “Post-emergence action against ECHCG in %” value (ECHCG [15]) was 100% and the “Post-emergence action at 20 g/ha against AMARE in %” value (AMARE [11]) was 100%.
